Experimental data reported in patent US20210267984A1, “APPLICATION OF ALLOPURINOL IN PREPARATION OF DRUG FOR TREATING CANCER WITH HIGH EXPRESSION OF PAICS GENE” (priority 2018, published 2021).

Key:
[1] = test system: cancers with non-abnormally high expression of the PAICS gene; test: Therapeutic effect, cancers with non-abnormally high PAICS expression; settings: cancers with non-abnormally high PAICS expression such as renal cancer, skin cutaneous melanoma, pheochromocytoma and paraganglioma
Text: (§1) This property of allopurinol is different from those of most chemotherapeutic drugs.

Bel-7402 = settings: data of CN102746306A; cited from earlier work
[2] = test system: Liver hepatocellular carcinoma; test: Anti-cancer effect of allopurinol (cell biology screening combined with animal experiments); settings: LIHC; PAICS abnormally high expression
Text: as §1

Cholangiocarcinoma = test: as above; settings: CHOL; PAICS abnormally high expression
Text: as §1

Colon adenocarcinoma = test: as above; settings: COAD; PAICS abnormally high expression
Text: as §1

Rectum adenocarcinoma = test: as above; settings: READ; PAICS abnormally high expression
Text: as §1

[3] = test system: Lung squamous cell carcinoma; test: as above; settings: LUSC; PAICS abnormally high expression
Text: as §1

[4] = test system: Cervical squamous cell carcinoma and endocervical adenocarcinoma; test: as above; settings: CESC; PAICS abnormally high expression
Text: as §1

[5] = test system: Head and Neck squamous cell carcinoma; test: as above; settings: HNSC; PAICS abnormally high expression
Text: as §1

Glioblastoma multiforme = test: as above; settings: GBM; PAICS abnormally high expression
Text: as §1

[6] = test system: Uterine Corpus Endometrial Carcinoma; test: as above; settings: UCEC; PAICS abnormally high expression
Text: as §1

[7] = test system: Breast invasive carcinoma; test: as above; settings: BRCA; PAICS abnormally high expression
Text: as §1

Stomach adenocarcinoma = test: as above; settings: STAD; PAICS abnormally high expression
Text: as §1

[8] = test system: Bladder Urothelial Carcinoma; test: as above; settings: BLCA; PAICS abnormally high expression
Text: as §1

Esophageal carcinoma = test: as above; settings: ESCA; PAICS abnormally high expression
Text: as §1

Prostate adenocarcinoma = test: as above; settings: PRAD; PAICS abnormally high expression
Text: as §1

Lung adenocarcinoma = test: as above; settings: LUAD; PAICS abnormally high expression
Text: as §1

[9] = test system: Pancreatic adenocarcinoma; test: as above; settings: PAAD; PAICS abnormally high expression
Text: as §1

[10] = test system: cancer with abnormally high expression of the PAICS gene; test: Anti-cancer and therapeutic effect, cancers with abnormally high PAICS expression
Text: as §1

SMMC-7221 = settings: data of CN102746306A; cited from earlier work

Oc1ncnc2[nH]ncc12 [allopurinol, Allopurinol]
therapeutic effect [1]: no significant therapeutic effect | anti-tumor activity (Bel-7402): no anti-tumor activity | Anti-cancer effect of allopurinol [2]: Significant | Anti-cancer effect of allopurinol (Cholangiocarcinoma): Significant | Anti-cancer effect of allopurinol (Colon adenocarcinoma): Significant | Anti-cancer effect of allopurinol (Rectum adenocarcinoma): Significant | Anti-cancer effect of allopurinol [3]: Significant | Anti-cancer effect of allopurinol [4]: Significant | Anti-cancer effect of allopurinol [5]: Significant | Anti-cancer effect of allopurinol (Glioblastoma multiforme): Significant | Anti-cancer effect of allopurinol [6]: Significant | Anti-cancer effect of allopurinol [7]: Significant | Anti-cancer effect of allopurinol (Stomach adenocarcinoma): Significant | Anti-cancer effect of allopurinol [8]: Significant | Anti-cancer effect of allopurinol (Esophageal carcinoma): Significant | Anti-cancer effect of allopurinol (Prostate adenocarcinoma): Significant | Anti-cancer effect of allopurinol (Lung adenocarcinoma): Significant | Anti-cancer effect of allopurinol [9]: Significant | anti-cancer and therapeutic effects [10]: significant anti-cancer and therapeutic effects | anti-tumor activity (SMMC-7221): no anti-tumor activity
